From patent US11214562B2, “Cyclohexyl benzamide compounds” (Eli Lilly and Company, priority 2016, dated 2022)

How the values were obtained:
human GPR142 = target: T1, human GPR142 (Homo sapiens, UniProt Q7Z601); experiment: GPR142 agonist effect as measured by IP-1 assay (IP-One HTRF); format: cell-based
T1 construct: expressed in transfected cells; host or cells: HEK293 (kept under G418 selection)
T1 sequence (Q7Z601 1-462): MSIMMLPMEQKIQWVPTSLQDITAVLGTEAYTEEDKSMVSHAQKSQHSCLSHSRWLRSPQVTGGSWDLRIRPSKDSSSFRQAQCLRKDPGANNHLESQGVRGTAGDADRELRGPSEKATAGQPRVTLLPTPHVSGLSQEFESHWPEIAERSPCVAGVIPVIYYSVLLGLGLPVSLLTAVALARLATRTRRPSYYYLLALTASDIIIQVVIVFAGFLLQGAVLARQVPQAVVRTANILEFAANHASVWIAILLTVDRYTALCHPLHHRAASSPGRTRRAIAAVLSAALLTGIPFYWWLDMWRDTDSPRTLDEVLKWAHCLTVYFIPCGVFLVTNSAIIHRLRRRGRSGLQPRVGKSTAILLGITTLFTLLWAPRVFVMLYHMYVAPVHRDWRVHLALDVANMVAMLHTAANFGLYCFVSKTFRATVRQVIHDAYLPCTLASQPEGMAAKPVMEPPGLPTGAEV
Description: Biological Assays GPR142 Agonist Effect as Measured by IP-1 Assay
HEK293 cells expressing human GPR142 are maintained in DMEM supplemented with 10% FBS and 800 μg/ml G418 (Geneticin®) at 37° C. and 5% CO2. Plate the cells in 384 well plates at 5000 cells per well and allow 18 hrs for attachment. Add the test compound at varying concentrations ranging from 30 μM to 1 nM. Incubate the cells for 1 hr. IP-1 measurements are performed using an IP-One HTRF® assay kit (Cisbio) according to manufacturer's protocol using an assay buffer containing 1×HBSS (+Ca, +Mg), 0.1% BSA, 50 mM LiCl and 20 mM HEPES, pH 7.2. Stop the reaction by the addition of IP1-d2 (IP-1 coupled to an organic HTRF acceptor) followed by cryptate solution (http://www.htrf.com/usa/htrf-chemistry). Incubate the plates at 25° C. for 1 hr. Read the fluorescence in an Envision instrument at 665 nm and 620 nm wavelength. Calculate the ratio of 665 nm/620 nm fluorescence and convert to IP-1 levels using an IP-1 standard curve. The data is fit to a 4 parameter-fit logistics to determine EC50 values.

GPR142 = target: T2, GPR142 (Mus musculus, UniProt Q7TQN9); experiment: Intraperitoneal glucose tolerance test (IPGTT); format: in vivo; conditions: male C57BL/6 mice, oral dose 90 min prior to 2 g/kg i.p. glucose challenge
T2 construct: from tissue; host or cells: whole animal, male C57BL/6 mice
T2 sequence (Q7TQN9 1-365): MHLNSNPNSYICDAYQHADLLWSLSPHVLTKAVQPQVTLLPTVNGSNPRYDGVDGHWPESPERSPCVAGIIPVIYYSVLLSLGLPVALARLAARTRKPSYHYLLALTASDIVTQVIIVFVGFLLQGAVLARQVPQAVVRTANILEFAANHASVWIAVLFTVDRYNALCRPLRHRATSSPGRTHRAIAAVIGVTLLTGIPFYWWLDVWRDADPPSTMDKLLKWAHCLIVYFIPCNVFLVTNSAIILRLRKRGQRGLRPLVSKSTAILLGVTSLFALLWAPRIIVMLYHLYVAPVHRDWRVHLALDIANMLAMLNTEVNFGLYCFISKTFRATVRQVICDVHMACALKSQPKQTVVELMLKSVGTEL
Description: Intraperitoneal Glucose Tolerance Tests (IPGTT)
The IPGTT assay is used to examine the ability of a compound to activate GPR142 in vivo resulting in anti-diabetic efficacy, i.e. reduction in plasma glucose levels. Male C57BL/6 mice (8-10 weeks of age) are fed normal rodent chow diet and water ad libitum. On the night before the study, fast the animals overnight in clean cages. On the morning of the study, orally dose the animals with either vehicle or a test compound at the indicated doses 90 min prior to the glucose challenge (2 g/kg) by intraperitoneal injection. Determine the blood glucose levels from tail bleeds taken immediately prior to compound dosing (−90 min) and 0, 15, 30, and 60 min after glucose challenge using handheld glucometers. Use the blood glucose profile from t=0 to t=60 min to calculate an area under the curve (AUC) for each treatment. Calculate the percent glucose lowering. The AUC is calculated for each treatment group with respect to the AUC of vehicle group. A compound with a reduction in glucose AUC (P<0.05) is considered positive in the assay.

For `Cc1ncn(C)c1-c1nnc([C@H]2CCC[C@@H](N(C)C(=O)c3cccc(Cl)c3)C2)[nH]1` [Example 1], the EC50 (human GPR142; HEK293 cells expressing human GPR142, 1 hr incubation, IP-1 HTRF, read-out: hGPR142 IP1 EC50) was 14.4 nM, the “hGPR142 IP1 relative efficacy” value (human GPR142; HEK293 cells expressing human GPR142, IP-1 HTRF) was 110% and the “IPGTT outcome (reduction in glucose AUC, P<0.05, is positive)” value (GPR142) was “positive”. For the same compound, the “ED50 (glucose AUC lowering in IPGTT)” value (GPR142; AUC t=0 to 60 min) was 0.25 mpk.
